Source: a melting point compilation (Tetko et al.; mined from patent text by program, amines drawn as free bases though some values may be those of a salt)

In the case of `O=C(Cn1c(=O)c(=O)[nH]c2cc([N+](=O)[O-])c(-n3cccc3)cc21)NCc1ccccc1`, the melting point is reported as > 300 °C. `CN1CCC=C(c2cc3ccccc3c(=O)[nH]2)C1` showed a melting point of 214 to 216 °C. For `O=C(Cc1c(Cl)c(F)nc(F)c1Cl)OCc1ccccc1`, the melting point was 98 to 101 °C. Compound `CSc1ccc(C(O)C#CC2(O)CCCC2)cc1` (configuration not stated) has a melting point of 118 to 120 °C. In the case of `COC(=O)C(=C1NCCCS1)[N+](=O)[O-]`, the melting point is reported as 107 to 108 °C. Work on `COC(=O)CNc1cc(CS(=O)(=O)C=Cc2c(OC)cc(OC)cc2OC)ccc1OC` yielded a melting point of 182 to 185 °C. For `N#Cc1ccc(-c2cnc3c(c2)N(Cc2ccccc2)C(=O)CN3)cn1`, the melting point was > 200 °C. Work on `COc1ccc(S(=O)(=O)Nc2nc(-c3ccccc3)nn2C)cc1OC` yielded a melting point of 279 to 280 °C. With `CN1C(=O)N(CC(COc2ccc(-c3ccc(C#N)cc3)cc2)N(O)C=O)C(=O)C1(C)C` (configuration not stated) the melting point was 65 to 67 °C. For `O=C(NCCc1c[nH]c2ccc(F)cc12)OCc1ccccc1`, the melting point was 104 to 105 °C. For `CCOc1cccnc1CSCCNC(=C[N+](=O)[O-])SC`, the melting point was 126 to 127 °C. With `COc1cc2c(cc1F)C1(CO2)C(=O)N(Cc2ccc(C(F)(F)F)o2)c2ccccc21` (configuration not stated) the melting point was 45 to 47 °C. Compound `COC(=O)Nc1ccc(O)c(Cl)c1` has a melting point of 96 to 98 °C. For `Fc1cccc(F)c1C1=NC(c2ccc(-c3ccc(SC(F)F)cc3)cc2)CO1` (configuration not stated), the melting point was 75 to 77 °C. `CCOc1c(C=C2CCn3c2nc2cc(NC(=O)C(=O)O)ccc2c3=O)cccc1OC` gave a melting point of 220 to 222 °C. Compound `OC1C2=C(CCN(CCCCc3c[nH]c4ccccc34)C2)c2ccccc21` (configuration not stated) has a melting point of 205 to 208 °C. For `O=C1NC(=O)C(c2cc(F)cc(F)c2)(c2cc(F)cc(F)c2)N1`, the melting point was 271 to 274 °C. With `COC(=O)c1ccc2ccc3ccccc3c2c1C(=O)OC` the melting point was 117 °C. `COc1ccc(NC(=O)c2ccc(-c3ccc(-c4nc(N)no4)cc3C)cc2)cc1N1CCN(C)CC1` gave a melting point of 169 to 171 °C. In the case of `Cc1ccnc(N2CCN(CCCCC3Sc4ccccc4NC3=O)CC2)c1` (configuration not stated), the melting point is reported as 119 °C. `CC(C)c1nc2[nH]c(=O)ccc2c(-c2ccc(F)cc2)c1/C=C/C=O` gave a melting point of 261 °C. Compound `C#CC[C@H](c1nc2cc(Cl)ccc2c(=O)n1Nc1ccccc1)N(CCCN)C(=O)c1cccc(F)c1F` has a melting point of 168 to 170 °C. `NC(CN1C(=O)C2(COc3cc4c(cc32)OCO4)c2ccccc21)=NO` (configuration not stated) showed a melting point of 235 to 238 °C. `C#Cc1cc(Nc2ncnc3cnc(NC(=O)CP(=O)(OCC)OCC)cc23)ccc1F` showed a melting point of 103 to 106 °C. `CCc1c(C(=O)N2CCN(CCCCc3c[nH]c4ccc(F)cc34)CC2)nc(-c2ccccc2Cl)n1-c1ccc(Cl)cc1` showed a melting point of 91 to 92 °C. With `CC1=CC2(C=C3CCC4C5CCC(=O)C5(C)CCC4C13C)OCCO2` (configuration not stated) the melting point was 159 °C. For `O=C(NNS(=O)(=O)c1ccc([N+](=O)[O-])cc1)c1ccccc1`, the melting point was 193 to 195 °C. For `COc1cc2[nH]c(=O)c3c(c2cc1OC)CCN(CCC1CCCCC1)C3`, the melting point was 195 to 198 °C. For `COc1ccc(C(=O)Nc2ccc(S(N)(=O)=O)cc2)c(SSc2cc(OC)ccc2C(=O)Nc2ccc(S(N)(=O)=O)cc2)c1`, the melting point was 315 to 316 °C. With `Cc1nc(N2CCc3ccccc3CC2)c(C#N)c(=O)n1NCC(F)(F)F` the melting point was 144 to 146 °C. In the case of `CCOC(=O)n1c2ccccc2c(=O)n1CSc1ccccc1`, the melting point is reported as 87 to 88 °C. Compound `COc1cc(OC)nc(NC(=O)NS(=O)(=O)c2c(Cl)cccc2CN2CCOC2=O)n1` has a melting point of 135 to 136 °C. `CCN(CC)CCC1CCCN(C(=O)N2c3ccccc3NC(=O)c3cccnc32)C1` (configuration not stated) showed a melting point of 110 to 113 °C. With `N=C(N)NCCc1ccc(OCCCCC(c2ccccc2)(c2ccccc2)c2ccccc2)cc1` the melting point was 119 to 121 °C. In the case of `Cc1ccc2c(c1)sc1ncc(C(O)CCc3ccccc3)n12` (configuration not stated), the melting point is reported as 209 to 210 °C. Work on `CC(C)(C)c1ccccc1N1CCN(C(=O)Nc2ccccc2)CC1` yielded a melting point of 68 to 72 °C. `N#Cc1ccc(C=CCc2ccc(C#N)cc2)cc1` showed a melting point of 98 to 105 °C. For `CC(C)(C)Cn1c(=O)c(=O)[nH]c2cc(Cl)c([N+](=O)[O-])cc21`, the melting point was 270 to 271 °C. In the case of `C=CCOC1OC(C)C(OCc2ccccc2)C(OCc2ccccc2)C1OC1OC(C)C(OCc2ccccc2)C(OCc2ccccc2)C1O` (configuration not stated), the melting point is reported as 98 to 99 °C. `O=C(NCCO)c1cccc(-c2cccc3nn(Cc4cccc(C(F)(F)F)c4)cc23)c1` showed a melting point of 136 to 137 °C. Work on `CSc1nc2cc(C(F)(F)F)ccc2n1NC(C)=O` yielded a melting point of 175 to 178 °C. Compound `COc1ccc2c(C=O)c(OCc3ccccc3)ccc2c1Br` has a melting point of 214 to 220 °C. `Cc1ncncc1NC(=O)c1ccc(-n2nc(C(F)(F)F)cc2C2CC2)c(F)c1` gave a melting point of 150 to 152 °C. `C[C@@H]1S[C@@H](C(=O)Nc2ccc(CN3CCCCC3)cc2)Cc2cc3c(cc2C1=O)OCO3` showed a melting point of 162 to 165 °C. In the case of `O=C1C(Br)=C(c2cn(S(=O)(=O)c3ccccc3)c3ccccc23)C(=O)N1COCc1ccccc1`, the melting point is reported as 49 to 51 °C. Work on `N#Cc1ccc(-c2ccc(Br)o2)nc1` yielded a melting point of 196 °C. `CCCc1nn(C)c2c(=O)[nH]c(-c3sccc3OCC)nc12` showed a melting point of 151 to 152 °C. `ON=CC1=NCCCS1` gave a melting point of 114 to 115 °C. `COc1ccc(SC2CC(=O)N2CC(=O)O)cc1` (configuration not stated) showed a melting point of 78 to 79 °C. For `CCCCCCSCCSc1nc(N)n[nH]1`, the melting point was 76.5 to 78 °C. In the case of `CCOC(=O)N1CCC(N=c2oc3ncnc(N)c3n2Cc2ccc(F)cc2)CC1`, the melting point is reported as 175 °C. For `CCCCn1nc(C)c(CO)c1Cc1ccc(-c2ccccc2-c2nnn[nH]2)cc1`, the melting point was 120 to 126 °C. With `CCC(O)c1ncn2c1CN(C)C(=O)c1ccccc1-2` (configuration not stated) the melting point was 145 to 147 °C. Work on `CCCn1c(=O)c2c(nc(/C=C/c3ccc(OC(C)=O)c(OC(C)=O)c3)n2C)n(CCC)c1=O` yielded a melting point of 229 to 230 °C. With `Oc1cc(Cl)ccc1Br` the melting point was 56 °C. Compound `CCCC(=O)NCCCCn1c(CC)nc2c(N)nc3ccccc3c21` has a melting point of 148 to 149 °C. `COc1cc2[nH]c(C(=O)O)cc2c(C)c1C` gave a melting point of 208 °C. `O=C(NN1CC=CCC1)Oc1ccccc1` showed a melting point of 124 to 126 °C. Compound `CC(C)(C)C(=O)c1ccc(COc2ccccc2)cc1` has a melting point of 79.5 to 80 °C. `C#CCNC(=C[N+](=O)[O-])NCCSCc1ncccc1Cl` gave a melting point of 171 to 172 °C. In the case of `O=C(O)Cc1ccc2oc3ncccc3c(=O)c2c1`, the melting point is reported as 244 to 245 °C. Compound `COc1ccc(Nc2nc(NCCNC(=O)OC(C)(C)C)nc(NC3CCCCCC3)n2)cc1Cl` has a melting point of 94 °C. With `Cc1ccccc1-c1ccc(C(=O)O)cc1C` the melting point was 140 to 143 °C. Compound `C1CNCCNCCNCNCCNC1` has a melting point of 49 to 51 °C. With `[N-]=[N+]=Nc1nc2c(N)ncnc2n1C1CC(O)C(CO)O1` (configuration not stated) the melting point was 177 to 179 °C. Work on `CCC(=O)Oc1ccc(C(=O)c2ccc(Sc3ccccc3)cc2)c(O)c1` yielded a melting point of 88 to 90 °C. Work on `COc1ccc(N2CCN(C)CC2)c2c1OCC(C(=O)Nc1ccc(N3CCOCC3)cc1)C2` (configuration not stated) yielded a melting point of 202 to 204 °C. For `CC1(C)CC(OC(=O)CCCCCCCCC(=O)OC2CC(C)(C)PC(C)(C)C2)CC(C)(C)P1` (configuration not stated), the melting point was 58 to 63 °C. `CSc1nccc(Oc2ccc(NC(=O)c3cc(F)cc(OC4CCCCC4)c3)c3ccccc23)n1` showed a melting point of 130 to 132 °C. Work on `CS(=O)(=O)CCNc1cc(C(c2cc(F)ccc2F)S(=O)(=O)c2ccc(Cl)cc2)c(Cl)cn1` (configuration not stated) yielded a melting point of 134 to 136 °C. Work on `CCOC(=O)C=Cc1ccc([N+](=O)[O-])c(O)c1` yielded a melting point of 95 °C. In the case of `CCCCc1nc(C(C)(C)O)c(C(=O)OCOC(=O)OC(C)C)n1Cc1ccc(-c2ccccc2C(=O)O)cc1`, the melting point is reported as 154 to 156 °C. `O=C1NCCN(C(c2ccccc2)(c2ccccc2)c2ccccc2)C1=O` gave a melting point of 230 to 235 °C. Compound `COCCOc1ccc(CCCNS(=O)(=O)Cc2ccccc2)c(Oc2ncc(C(F)(F)F)cc2Cl)c1` has a melting point of 97 to 100 °C. In the case of `Nc1ccc2c(CCl)cc(O)nc2n1`, the melting point is reported as > 280 °C. Work on `Cc1nc(NC(=N)N)sc1C(=O)Nc1cccc(OCC(=O)O)c1` yielded a melting point of 284 °C. `CCC(C)(C)c1nc(C(C)C)[nH]c1C(C)(C)CC` showed a melting point of 28 °C. Compound `CC(C)(C)c1ccc2c(c1)OC(C(F)(F)C(F)(F)F)C(C(=O)O)=C2` (configuration not stated) has a melting point of 171 to 174 °C. With `O=C(Nc1ncccn1)c1c(Cl)ccc2c1OCCO2` the melting point was 223 °C. For `CNC1([C@@H]2CCN(c3c(F)cc4c(=O)c(C(=O)O)cn([C@@H]5C[C@@H]5F)c4c3OC)C2)CC1`, the melting point was 208 to 209 °C. In the case of `COc1cc(C(=O)O)ccc1Cc1cn(C)c2ccc(N(C(N)=O)C3CCCC3)cc12`, the melting point is reported as 203 to 206 °C. For `O=[N+]([O-])C(=Cc1ccco1)C1=NCCN1CC1CCOC1` (configuration not stated), the melting point was 115 to 117 °C. `O=C(c1ccc(CN2CCOCC2)cc1)c1cccc2nc(N[C@@H]3CCc4ccccc43)ccc12` gave a melting point of 160 °C. For `CC(COc1ccc2c(c1)CCCC2=O)n1ccnc1` (configuration not stated), the melting point was 132 to 135 °C. Compound `COc1ccc2c(CC(=O)O)c(C(=O)c3cc(C)ccn3)[nH]c2c1` has a melting point of 204 °C. `CCCOc1ccc(CCl)cc1-c1nc2c(CCC)nn(C)c2c(=O)[nH]1` showed a melting point of 102 to 104 °C. In the case of `O=C(Nc1ccccc1)NC1C(=O)Nc2ccccc2N(CC23CC4CC(CC(C4)C2)C3)C1=O` (configuration not stated), the melting point is reported as > 280 °C. `CCCCOc1nc2ncnn2c2c1cnc1c2cnn1CC` showed a melting point of 140 to 142 °C. `Cn1nc(-c2cc([N+](=O)[O-])c(O)cc2F)c(Cl)c1C(F)(F)F` gave a melting point of 89 to 90 °C. `CC[C@H](C)[C@H](N)C(=O)N(CC(C)C)C(=O)[C@@H]1CCCN1CC(=O)[C@H](Cc1ccccc1)NC(=O)OCc1ccccc1` showed a melting point of 80 to 81 °C. For `CC(=O)Nc1cccc2c1C(=O)c1c-2n[nH]c1-c1cccs1`, the melting point was 269 °C. Work on `O=C1Cc2cc3c(cc2C(c2ccc([N+](=O)[O-])cc2)=NN1)OCO3` yielded a melting point of 293 to 295 °C. Work on `COC(=O)c1ccc(Cn2c(=O)c3cc(C(=O)NCc4ccc(OC)cc4)sc3n(C)c2=O)cc1` yielded a melting point of 235 to 237 °C. Work on `Oc1cc(CCc2ccccc2)cc(O)c1O` yielded a melting point of 124 °C. Compound `O=C(NC(=O)c1c(Cl)cccc1Cl)Nc1cnc(-c2ccc(Cl)cc2)cn1` has a melting point of 245 to 249 °C. In the case of `COc1ccc2[nH]cc(C3CCN(CCCCN4C(=O)CC5(CCCC5)CC4=O)CC3)c2c1`, the melting point is reported as 150 °C. `CCOC(=O)CCc1oc(-n2cncn2)nc1-c1ccc(Cl)cc1` gave a melting point of 99 to 100 °C.
